Test results published in ChEMBL document CHEMBL1681708, “The synthesis and structure-activity relationship of pyridazinones as glucan synthase inhibitors” (Bioorg Med Chem Lett, 2011).
Values after ≈ are worked out from the molar mass of the structure shown.

Legend:
Candida albicans = experiment: Antifungal activity against Candida albicans C693 by broth dilution method; type: functional; conditions: for MIC: read-out: MIC100
Beta-1,3-glucan synthase = biological target: T1, Beta-1,3-glucan synthase (Candida albicans, UniProt O13383); experiment: Inhibition of Candida albicans BWP17 1,3-beta-D-glucan synthase
T1 sequence (O13383 whole entry): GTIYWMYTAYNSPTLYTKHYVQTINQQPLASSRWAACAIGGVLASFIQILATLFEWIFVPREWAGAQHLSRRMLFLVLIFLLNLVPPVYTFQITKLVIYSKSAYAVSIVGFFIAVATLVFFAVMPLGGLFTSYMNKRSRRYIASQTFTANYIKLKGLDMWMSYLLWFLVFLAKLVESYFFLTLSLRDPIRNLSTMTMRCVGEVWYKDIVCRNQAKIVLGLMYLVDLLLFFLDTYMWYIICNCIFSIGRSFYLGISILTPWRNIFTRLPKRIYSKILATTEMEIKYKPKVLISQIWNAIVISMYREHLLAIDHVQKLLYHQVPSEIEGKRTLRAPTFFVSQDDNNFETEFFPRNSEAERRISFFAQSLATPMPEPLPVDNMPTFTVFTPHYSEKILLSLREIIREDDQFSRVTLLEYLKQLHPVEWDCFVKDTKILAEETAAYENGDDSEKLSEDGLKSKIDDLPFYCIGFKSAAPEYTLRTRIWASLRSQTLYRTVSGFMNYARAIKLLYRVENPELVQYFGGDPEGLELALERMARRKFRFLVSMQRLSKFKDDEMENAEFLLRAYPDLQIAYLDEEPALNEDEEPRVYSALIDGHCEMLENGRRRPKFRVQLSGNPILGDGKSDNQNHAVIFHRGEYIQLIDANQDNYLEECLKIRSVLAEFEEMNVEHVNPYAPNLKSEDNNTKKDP

Nakaseomyces glabratus = experiment: Antifungal activity against Candida glabrata C624 by broth dilution method; type: functional; conditions: read-out: MIC100
[1] = AUC (0 to 6 hrs) in rat at 10 mg/kg, po administered with methylcellulose; type: ADME, organism-based; parameters: time < 6 hr, dose 10 mg/kg, route oral; conditions: in vivo
Aspergillus fumigatus = experiment: Antifungal activity against Aspergillus fumigatus ND158 by broth dilution method; type: functional; conditions: read-out: MEC
Candida glabrata [2] = experiment: Antifungal activity against Candida glabrata C624 infected in immunocompromized mouse assessed as log10 reduction in CFU in kidney at 10 mg/kg, poqd for seven days (reference value: 4.28 log10 CFU)
[3] = Clearance in dog hepatocytes measured per molar mass of cells; type: ADME, cell-based, Canis lupus familiaris, Liver, Hepatocyte
Hepatocyte [4] = experiment: Clearance in rat hepatocytes measured per molar mass of cells; type: ADME, cell-based, Liver
Hepatocyte [5] = experiment: Clearance in human hepatocytes measured per molar mass of cells; type: ADME, cell-based, Liver
Cytochrome P450 2C9 = Cytochrome P450 2C9 (Homo sapiens, UniProt P11712); experiment: Inhibition of CYP2C9 at 30 uM; type: ADME
[6] = AUC (0 to 8 hrs) in dog at 2 mg/kg, po administered with methylcellulose and HPBCD; type: ADME, organism-based, Canis lupus familiaris; parameters: time < 8 hr, dose 2 mg/kg, route oral; conditions: in vivo
Cytochrome P450 3A4 = Cytochrome P450 3A4 (Homo sapiens, UniProt P08684); experiment: Inhibition of CYP3A4 at 30 uM; type: ADME
hERG (KCNH2) = hERG (KCNH2) (Homo sapiens, UniProt Q12809); experiment: Inhibition of human ERG at 1 uM by patch clamp assay
Candida glabrata [7] = experiment: Antifungal activity against Candida glabrata C624 infected in immunocompromized mouse assessed as log10 reduction in CFU in kidney at 30 mg/kg, poqd for seven days (reference value: 4.28 log10 CFU)
Cytochrome P450 2D6 = Cytochrome P450 2D6 (Homo sapiens, UniProt P10635); experiment: Inhibition of CYP2D6 at 30 uM; type: ADME
Sequence of Cytochrome P450 2D6 (P10635 whole entry): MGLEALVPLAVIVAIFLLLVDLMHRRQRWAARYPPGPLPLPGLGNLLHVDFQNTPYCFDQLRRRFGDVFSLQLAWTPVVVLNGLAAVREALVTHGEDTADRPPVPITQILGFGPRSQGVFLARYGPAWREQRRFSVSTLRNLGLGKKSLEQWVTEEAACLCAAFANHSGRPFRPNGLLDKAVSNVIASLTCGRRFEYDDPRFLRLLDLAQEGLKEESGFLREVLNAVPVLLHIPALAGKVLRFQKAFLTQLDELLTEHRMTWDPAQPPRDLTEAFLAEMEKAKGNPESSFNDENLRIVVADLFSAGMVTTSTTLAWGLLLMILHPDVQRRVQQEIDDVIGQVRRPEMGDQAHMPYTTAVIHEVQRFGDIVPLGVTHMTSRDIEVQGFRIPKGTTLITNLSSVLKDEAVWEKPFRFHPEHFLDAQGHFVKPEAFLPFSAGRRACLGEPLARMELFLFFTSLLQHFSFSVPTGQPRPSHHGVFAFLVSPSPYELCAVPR

Sequence of Cytochrome P450 3A4 (P08684 whole entry): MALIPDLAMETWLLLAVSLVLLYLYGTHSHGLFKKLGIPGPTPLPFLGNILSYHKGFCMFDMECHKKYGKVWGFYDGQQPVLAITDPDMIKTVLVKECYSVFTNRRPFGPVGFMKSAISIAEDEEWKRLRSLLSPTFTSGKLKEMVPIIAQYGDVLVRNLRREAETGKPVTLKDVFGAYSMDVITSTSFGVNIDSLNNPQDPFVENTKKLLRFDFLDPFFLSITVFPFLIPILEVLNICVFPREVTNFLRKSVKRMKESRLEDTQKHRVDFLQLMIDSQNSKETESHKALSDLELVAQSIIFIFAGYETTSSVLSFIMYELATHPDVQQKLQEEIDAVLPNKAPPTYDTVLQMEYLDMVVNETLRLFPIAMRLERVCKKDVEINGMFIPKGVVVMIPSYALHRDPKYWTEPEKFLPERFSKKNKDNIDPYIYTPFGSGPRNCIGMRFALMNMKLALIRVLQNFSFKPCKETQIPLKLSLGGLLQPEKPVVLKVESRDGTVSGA
Sequence of hERG (KCNH2) (Q12809 whole entry): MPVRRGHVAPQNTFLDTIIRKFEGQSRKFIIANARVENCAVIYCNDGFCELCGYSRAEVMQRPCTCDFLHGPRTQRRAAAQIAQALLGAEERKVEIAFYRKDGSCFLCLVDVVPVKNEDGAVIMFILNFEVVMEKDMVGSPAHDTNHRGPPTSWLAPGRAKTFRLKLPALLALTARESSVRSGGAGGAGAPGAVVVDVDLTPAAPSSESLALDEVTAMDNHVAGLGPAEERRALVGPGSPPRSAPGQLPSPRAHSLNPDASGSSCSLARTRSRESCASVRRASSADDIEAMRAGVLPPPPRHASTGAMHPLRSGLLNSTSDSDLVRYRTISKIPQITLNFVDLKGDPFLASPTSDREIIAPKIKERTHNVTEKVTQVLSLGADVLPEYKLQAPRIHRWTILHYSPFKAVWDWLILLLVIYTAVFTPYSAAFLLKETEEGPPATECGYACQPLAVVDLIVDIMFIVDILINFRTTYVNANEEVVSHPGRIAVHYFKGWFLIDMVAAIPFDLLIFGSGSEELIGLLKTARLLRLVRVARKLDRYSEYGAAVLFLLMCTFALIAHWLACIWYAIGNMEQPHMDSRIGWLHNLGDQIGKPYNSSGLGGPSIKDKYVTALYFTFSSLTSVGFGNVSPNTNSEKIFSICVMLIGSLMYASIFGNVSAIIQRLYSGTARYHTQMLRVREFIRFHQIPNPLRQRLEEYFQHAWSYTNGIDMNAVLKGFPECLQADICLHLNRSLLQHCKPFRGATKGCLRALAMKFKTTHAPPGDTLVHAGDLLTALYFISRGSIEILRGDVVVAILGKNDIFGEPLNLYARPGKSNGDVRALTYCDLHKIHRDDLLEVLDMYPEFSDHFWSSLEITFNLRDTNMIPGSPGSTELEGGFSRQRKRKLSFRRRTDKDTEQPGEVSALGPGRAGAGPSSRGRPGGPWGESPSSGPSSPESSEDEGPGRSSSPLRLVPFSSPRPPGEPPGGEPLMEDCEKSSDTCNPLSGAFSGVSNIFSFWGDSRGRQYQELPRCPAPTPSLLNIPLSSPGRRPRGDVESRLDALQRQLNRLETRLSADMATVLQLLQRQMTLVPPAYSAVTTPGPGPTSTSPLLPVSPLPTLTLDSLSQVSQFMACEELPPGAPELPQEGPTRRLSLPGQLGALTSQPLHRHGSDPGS
Sequence of Cytochrome P450 2C9 (P11712 whole entry): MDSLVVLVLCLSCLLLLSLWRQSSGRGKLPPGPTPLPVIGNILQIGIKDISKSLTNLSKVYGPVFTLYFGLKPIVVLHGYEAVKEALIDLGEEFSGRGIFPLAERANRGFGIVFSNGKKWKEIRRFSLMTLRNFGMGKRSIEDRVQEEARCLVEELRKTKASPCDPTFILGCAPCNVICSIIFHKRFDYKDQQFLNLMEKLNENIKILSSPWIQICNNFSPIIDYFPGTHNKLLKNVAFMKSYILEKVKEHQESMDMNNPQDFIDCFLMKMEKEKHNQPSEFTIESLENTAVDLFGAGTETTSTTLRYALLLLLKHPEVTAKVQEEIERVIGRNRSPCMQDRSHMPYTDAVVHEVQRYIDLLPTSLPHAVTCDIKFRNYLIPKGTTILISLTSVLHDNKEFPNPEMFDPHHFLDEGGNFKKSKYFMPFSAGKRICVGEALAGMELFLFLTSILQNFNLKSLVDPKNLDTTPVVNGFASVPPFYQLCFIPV

MIC (Candida albicans) [µg/mL]	IC50 (Beta-1,3-glucan synthase) [µM]	MIC (Nakaseomyces glabratus) [µg/mL]	Compound	further results
5 (≈ 10.4 µM)	2.7	0.63 (≈ 1.31 µM)	O=c1c(OC2CCCC2)c(N2CCN(S(=O)(=O)c3ccccn3)CC2)cnn1-c1ccccc1	
> 20	5.26	0.63 (≈ 1.51 µM)	CS(=O)(=O)N1CCN(c2cnn(-c3ccccc3)c(=O)c2OC2CCCC2)CC1	
8.4 (≈ 16.9 µM)	1.19	0.06 (≈ 0.121 µM)	O=c1c(OC2CCCC2)c(N2CCN(S(=O)(=O)Cc3ccccn3)CC2)cnn1-c1ccccc1	
8.4 (≈ 16.9 µM)	0.404	0.13 (≈ 0.262 µM)	O=c1c(OC2CCCC2)c(N2CCN(S(=O)(=O)Cc3cccnc3)CC2)cnn1-c1ccccc1	
	> 20.8	0.15 (≈ 0.312 µM)	O=c1c(OC2CCCC2)c(N2CCN(S(=O)(=O)c3ccccc3)CC2)cnn1-c1ccccc1	MIC50 (Candida albicans): 0.78 µg/mL (≈ 1.62 µM)
	3.81	0.2 (≈ 0.448 µM)	CC(C)S(=O)(=O)N1CCN(c2cnn(-c3ccccc3)c(=O)c2OC2CCCC2)CC1	AUC(0-t) at 6 h [1]: 1600 ng·h/mL; MIC50 (Candida albicans): 25 µg/mL (≈ 56 µM)
> 50	13.6	1.6 (≈ 3.57 µM)	CC(C)S(=O)(=O)N1CCN(c2cnn(-c3cccnc3)c(=O)c2OC2CCCC2)CC1	
> 20	> 22	8.4 (≈ 18.5 µM)	CC(C)S(=O)(=O)N1CCN(c2cnn(-c3nccs3)c(=O)c2OC2CCCC2)CC1	
6.3 (≈ 13.6 µM)	2.15	0.1 (≈ 0.215 µM)	CC(C)S(=O)(=O)N1CCN(c2cnn(-c3cccc(F)c3)c(=O)c2OC2CCCC2)CC1	minimal effective concentration (Aspergillus fumigatus): 1.6 µg/mL; AUC(0-t) at 6 h [1]: 670 ng·h/mL
3.1 (≈ 6.44 µM)	1.08	0.1 (≈ 0.208 µM)	CC(C)S(=O)(=O)N1CCN(c2cnn(-c3cccc(Cl)c3)c(=O)c2OC2CCCC2)CC1	AUC(0-t) at 6 h [1]: 490 ng·h/mL
6.3 (≈ 13.1 µM)	1.28	0.4 (≈ 0.829 µM)	CC(C)S(=O)(=O)N1CCN(c2cnn(-c3cc(F)cc(F)c3)c(=O)c2OC2CCCC2)CC1	
6.3 (≈ 12.6 µM)	0.501	0.06 (≈ 0.12 µM)	CC(C)S(=O)(=O)N1CCN(c2cnn(-c3cc(F)cc(Cl)c3)c(=O)c2OC2CCCC2)CC1	AUC(0-t) at 6 h [1]: 490 ng·h/mL
3.1 (≈ 6.01 µM)	0.504	0.2 (≈ 0.388 µM)	CC(C)S(=O)(=O)N1CCN(c2cnn(-c3cc(Cl)cc(Cl)c3)c(=O)c2OC2CCCC2)CC1	
> 20	1.95	2.5 (≈ 5.4 µM)	CC(C)S(=O)(=O)N1CCN(c2cnn(-c3cccc(O)c3)c(=O)c2OC2CCCC2)CC1	
> 50	4.12	25 (≈ 54.2 µM)	CC(C)S(=O)(=O)N1CCN(c2cnn(-c3cccc(N)c3)c(=O)c2OC2CCCC2)CC1	

The next lines start with the compound.

Compound	MIC (Candida albicans) [µg/mL]	IC50 (Beta-1,3-glucan synthase) [µM]	MIC (Nakaseomyces glabratus) [µg/mL]	further results
O=c1c(N2CCOCC2)c(N2CCN(S(=O)(=O)Cc3ccccc3)CC2)cnn1-c1ccccc1	> 50	9.28	0.39 (≈ 0.787 µM)	
O=c1c(C2CCCCC2)c(N2CCN(S(=O)(=O)Cc3ccccc3)CC2)cnn1-c1ccccc1	> 20	4.47	> 20	
O=c1c(OC2CCCCC2)c(N2CCN(S(=O)(=O)Cc3ccccc3)CC2)cnn1-c1ccccc1	0.78 (≈ 1.53 µM)	1.04	0.05 (≈ 0.0983 µM)	
O=c1c(OC2CCCC2)c(N2CCN(S(=O)(=O)Cc3ccccc3)CC2)cnn1-c1ccccc1	0.26 (≈ 0.526 µM)	0.364	0.03 (≈ 0.0607 µM)	
CCOCCCNc1c(N2CCN(S(=O)(=O)Cc3ccccc3)CC2)cnn(-c2ccccc2)c1=O	> 50	4.5	0.78 (≈ 1.52 µM)	
CCCCCCCc1c(N2CCN(S(=O)(=O)Cc3ccccc3)CC2)cnn(-c2ccccc2)c1=O	> 50	2.95	0.78 (≈ 1.53 µM)	
CCCCCCCOc1c(N2CCN(S(=O)(=O)Cc3ccccc3)CC2)cnn(-c2ccccc2)c1=O	0.78 (≈ 1.49 µM)	0.229	< 0.1	
CCOCCOc1c(N2CCN(S(=O)(=O)Cc3ccccc3)CC2)cnn(-c2ccccc2)c1=O	3.1 (≈ 6.22 µM)	1.81	0.1 (≈ 0.201 µM)	
CCCCCCCSc1c(N2CCN(S(=O)(=O)Cc3ccccc3)CC2)cnn(-c2ccccc2)c1=O		2.03	0.78 (≈ 1.44 µM)	MIC50 (Candida albicans): 3.1 µg/mL (≈ 5.73 µM)
CCCCCCC[S+]([O-])c1c(N2CCN(S(=O)(=O)Cc3ccccc3)CC2)cnn(-c2ccccc2)c1=O (stereo not drawn)	25 (≈ 44.9 µM)	5.39	0.59 (≈ 1.06 µM)	
CCCCCCCS(=O)(=O)c1c(N2CCN(S(=O)(=O)Cc3ccccc3)CC2)cnn(-c2ccccc2)c1=O	> 50	> 17.5	1.6 (≈ 2.79 µM)	
CC1CN(S(=O)(=O)Cc2ccccc2)CCN1c1cnn(-c2ccccc2)c(=O)c1OC1CCCCC1 (stereo not drawn)	6.3 (≈ 12.1 µM)	4.21	0.39 (≈ 0.746 µM)	
C[C@@H]1CN(c2cnn(-c3ccccc3)c(=O)c2OC2CCCCC2)CCN1S(=O)(=O)Cc1ccccc1		5.36	0.78 (≈ 1.49 µM)	MIC50 (Candida albicans): 19 µg/mL (≈ 36.4 µM)
C[C@H]1CN(c2cnn(-c3ccccc3)c(=O)c2OC2CCCCC2)CCN1S(=O)(=O)Cc1ccccc1		8.23	0.39 (≈ 0.746 µM)	MIC50 (Candida albicans): 2 µg/mL (≈ 3.83 µM)
O=c1c(OC2CCCCC2)c(N2CC3CC2CN3S(=O)(=O)Cc2ccccc2)cnn1-c1ccccc1 (stereo not drawn)	> 50	> 19.2	> 50	
CC(C)S(=O)(=O)N1CCN(c2cnn(C3CCCCC3)c(=O)c2OC2CCCC2)CC1	> 50	19.4	0.78 (≈ 1.72 µM)	
CC(C)S(=O)(=O)N1CCN(c2cnn(-c3cccc(F)c3)c(=O)c2OC2CCC(F)(F)C2)CC1 (stereo not drawn)	6.3 (≈ 12.6 µM)	2.2	0.78 (≈ 1.56 µM)	minimal effective concentration (Aspergillus fumigatus): 3.1 µg/mL; AUC(0-t) at 6 h [1]: 470 ng·h/mL
CC(C)S(=O)(=O)N1CCN(c2cnn(-c3cc(F)cc(F)c3)c(=O)c2OC2CCC(F)(F)C2)CC1 (stereo not drawn)	12.5 (≈ 24.1 µM)	1.16	0.05 (≈ 0.0964 µM)	minimal effective concentration (Aspergillus fumigatus): 3.1 µg/mL; AUC(0-t) at 6 h [1]: 440 ng·h/mL
CC(C)S(=O)(=O)N1CCN(c2cnn(-c3cccc(F)c3)c(=O)c2OC2CCC(F)C2)CC1 (racemic)	16.7 (≈ 34.6 µM)	0.87	0.13 (≈ 0.269 µM)	minimal effective concentration (Aspergillus fumigatus): 4.2 µg/mL; AUC(0-t) at 6 h [1]: 300 ng·h/mL
CC(C)S(=O)(=O)N1CCN(c2cnn(-c3cc(F)cc(F)c3)c(=O)c2OC2CCC(F)C2)CC1 (racemic)	6.3 (≈ 12.6 µM)	1.24	0.1 (≈ 0.2 µM)	log10cfu (Candida glabrata [2]): 4.16; minimal effective concentration (Aspergillus fumigatus): 1.6 µg/mL; CL [3]: 1.7 µL/min; CL (Hepatocyte [4]): 2.4 µL/min; CL (Hepatocyte [5]): 1 µL/min; AUC(0-t) at 6 h [1]: 2100 ng·h/mL; inhibition (INH) (Cytochrome P450 2C9): Not Active; AUC(0-t) at 8 h [6]: 3500 ng·h/mL; inhibition (INH) (Cytochrome P450 3A4): Not Active; inhibition at 1 µM (hERG (KCNH2)): 22%; log10cfu (Candida glabrata [7]): 1.3; inhibition (INH) (Cytochrome P450 2D6): Not Active
